Experimental data taken from PMC8191813 (Antiviral research, 2017).
Like-named read-outs stand apart in the source and are kept apart here.

Columns and labels:
[1] = system: CCHFV/ZsG; assay: microbe, parasite or virus in culture; type: cell-based, Crimean-Congo hemorrhagic fever virus
[2] = system: wild-type CCHFV; assay: microbe, parasite or virus in culture; type: cell-based, Crimean-Congo hemorrhagic fever virus; conditions: for EC50: Orthonairovirus haemorrhagiae, Huh-7, read-out: EC50 CCHFV
[3] = in vitro; conditions: human
[4] = system: CCHFV/ZsG; assay: microbe, parasite or virus in culture; type: cell-based, Crimean-Congo hemorrhagic fever virus; conditions: Orthonairovirus haemorrhagiae, SW13, read-out: EC50 CCHFV/ZsG
[5] = system: CCHFV; conditions: read-out: previously reported EC50; cited from earlier work
[6] = system: Huh7 cells
[7] = system: woodchucks; conditions: in vivo; cited from earlier work
[8] = system: rats; conditions: rat, in vivo; cited from earlier work
[9] = system: SW13 cells
[10] = system: CCHF; conditions: in vivo; cited from earlier work
[11] = Orthonairovirus haemorrhagiae, Huh-7, read-out: EC50 CCHFV/ZsG

For `NC(=O)c1ncn([C@@H]2O[C@H](CO)[C@@H](O)[C@H]2O)n1` [Ribavirin, ribavirin], the “selectivity index (SI) CCHFV/ZsG” value [1] was 12.48 ± 2.61 (> 10), the EC50 [1, 11] was 12500 ± 2600 nM and the EC50 ([1]; read-out: EC50 CCHFV/ZsG) was 12500 nM. For the same compound, the “selectivity index (SI) CCHFV” value [2] was 5.69 (> 26), the “virus detection at the highest concentration of compound tested” value (from here on “virus detection”) [2] was “no virus detected” and the EC50 [2] was 5690 nM. For the same compound, the CC50 [3] was over 150000 nM, the EC50 [4] was 5690 ± 710 nM and the EC50 [5] was 11500 nM.
With `COc1c(C)c2c(c(O)c1C/C=C(\C)CCC(=O)O)C(=O)OC2` [Mycophenolic acid, mycophenolic acid] the “selectivity index (SI) CCHFV/ZsG” value [1] was 0.10 ± 0.01 (18), the EC50 [1, 11] was 100 nM and the “selectivity index (SI) CCHFV” value [2] was 0.19 (9). For the same compound, the EC50 [2] was 190 nM and the CC50 [3] was 1780 ± 250 nM.
With `COc1c(C)c2c(c(O)c1C/C=C(\C)CCC(=O)OCCN1CCOCC1)C(=O)OC2` [MMF, mycophenolate mofetil] the “ZsG fluorescence in initial screen” value [1] was < 30 % of control, the EC50 [1, 11] was 390 ± 130 nM and the viability [3] was over 80%.
For `Nc1ccn([C@@H]2O[C@H](CO)[C@@H](O)[C@H]2F)c(=O)n1` [2′-dFC, 2′-deoxy-2′-fluorocytidine], the “cytotoxicity, result in words” value [6] was “no cytotoxicity”, the “ZsG fluorescence in initial screen” value [1] was < 30 % of control and the “potency relative to T-705” value [1] was 17 ×. The “potency relative to ribavirin” value [1] was 200 ×, the “selectivity index (SI) CCHFV/ZsG” value [1] was 0.061 ± 0.018 (> 820) and the EC50 [1, 11] was 61 nM. The “CCHFV titer reduction compared to DMSO only-treated control” value [2] was “approximately 2 logs”, the “selectivity index (SI) CCHFV” value [2] was 0.031 (> 1613) and the “virus detection” value [2] was “no virus detected”. It also gave an EC50 [2] of 31 nM, a CC50 [3] of over 50000 nM and a viability [3] of over 80%. For the same compound, the adverse clinical effects [7] was “no adverse clinical effects”, the adverse clinical effects [8] was “no adverse clinical effects” and the “cytotoxicity, result in words” value [9] was “no associated cytotoxicity”.
For `NC(=O)c1nc(F)c[nH]c1=O` [T-705, favipiravir], the “ZsG fluorescence in initial screen” value [1] was < 30 % of control, the “selectivity index (SI) CCHFV/ZsG” value [1] was 1.03 ± 0.16 (> 50) and the EC50 [1, 11] was 1030 nM. The “CCHFV titer reduction compared to DMSO only-treated control” value [2] was “approximately 2 logs”, the “selectivity index (SI) CCHFV” value [2] was 0.88 (> 57) and the “virus detection” value [2] was “no virus detected”. The EC50 [2] was 880 nM, the CC50 [3] was over 50000 nM and the viability [3] was over 80%. For the same compound, the “efficacy in mouse model of CCHF” value [10] was “higher efficacy than ribavirin” and the EC50 [5] was 7000 nM.
